Key:
[1] = body weight of HFD-fed mice; assay type: in vivo; settings: 60 mg/kg daily oral gavage; 7 days post administration
Procedure: FIGS. 8A-B. Effects of the SHP2 inhibitor on body weight and insulin signaling in HFD-WT mice. […] Mean±SD. (FIG. 8B) Quantification of the relative band intensities in FIG. 3E. Mean±SD; n=3 independent experiments.
The IR staining at the PM in liver sections from mice fed with HFD was weak, and insulin stimulation further reduced it and caused IR endocytosis (FIGS. 3C and D).
All animals were maintained in a specific antigen-free barrier facility with 12 h light/dark cycles (6 AM on and 6 PM off). Mice were fed a standard rodent chow (2016 Teklad Global 16% protein rodent diet, Harlan Laboratories). For inducing insulin resistance, C57BL/6J (Stock No. 000664, Jackson laboratory) were fed a high-fat (60%) diet (OpenSource Diets, Cat. No. D12492). For in vivo pharmacological assays, 6-8-weeks-old male mice were fed high-fat diet (HFD) for 5 weeks. Two days before drug administration, mice were switched to normal chow. […] For glucose tolerance test, mice were fasted for 14 h, and their blood glucose levels (T=0) were measured with tail bleeding using a glucometer (AlphaTRAK®). […] Blood glucose levels were measured at 15, 30, 60, and 120 min after glucose injection. For insulin tolerance test, mice fasted for 4 h were injected intraperitoneally with recombinant human insulin (Eli Lilly) at 1 U/kg body weight, and their blood glucose levels were measured at 0, 15, 30 and 60 min after injection.

primary hepatocytes = assay: insulin signaling in primary hepatocytes (quantitative Western blot); assay type: cell-based, mice; settings: 10 μM for 2 h, then 100 nM insulin
Procedure: (FIG. 3A) Glucose tolerance test in 14 h fasted male mice fed a HFD for 5 weeks. […] At 1 day after drug treatment, glucose tolerance test was performed. Mean±SEM. (FIG. 3B) Insulin tolerance test of mice treated as described in FIG. 3A. Mean±SEM. […] The liver sections were stained with anti-IR (red) and DAPI (blue). Scale bars, 5 μm. (FIG. 3D) Quantification of the ratios of PM and IC IR signals of the livers in C (mean±SD; *p<0.0001). […] Cell lysates were blotted with the indicated antibodies.
To examine the effect of SHP2 inhibition on insulin signaling in freshly isolated primary hepatocytes, the activating phosphorylation of IR (pY1189/1190), AKT (pT308), and ERK1/2 (pT202/Y204, pERK1/2) in the hepatocytes was monitored (FIG. 3E and FIG. 8B).
Primary hepatocytes were isolated from 2-month-old female mice with a standard two-step collagenase perfusion procedure. Cells were plated on collagen-coated dishes and incubated in attachment medium (Williams' E Medium supplemented with 5% (v/v) FBS, 10 nM insulin, 10 nM dexamethasone, and 1% (v/v) penicillin/streptomycin). After 2-4 h, the medium was changed to low-glucose DMEM supplemented with 5% (v/v) FBS, 10 nM dexamethasone, 10 nM insulin, 100 nM triiodothyronine, and 1% (v/v) penicillin/streptomycin.
Cells were incubated with the cell lysis buffer [50 mM HEPES (pH 7.4), 150 mM NaCl, 10% (v/v) Glycerol, 1% (v/v) Triton X-100, 1 mM EDTA, 100 mM sodium fluoride, 2 mM sodium orthovanadate, 20 mM sodium pyrophosphate, 0.5 mM dithiothreitol (DTT), 2 mM phenylmethylsulfonyl fluoride (PMSF)] supplemented with protease inhibitors (Roche®) and PhosSTOP™ (Roche®) on ice for 1 h. The cell lysates were cleared by centrifugation and incubated with antibody-conjugated beads. The beads were washed, and the bound proteins were eluted with the SDS sample buffer and analyzed by SDS-PAGE and Western blotting. For quantitative Western blots, anti-rabbit immunoglobulin G (IgG) (H+L) (Dylight 800 or 680 conjugates) and anti-mouse IgG (H+L) (Dylight 800 or 680 conjugates) (Cell Signaling) were used as secondary antibodies. […]

Compound: CC1(N)CCN(c2cnc(-c3cccc(Cl)c3Cl)c(N)n2)CC1 [SHP099]
- body weight [1]: did not change the body weight
- activation of the MAPK pathway by insulin (pERK1/2) (primary hepatocytes): inhibited the activation of the MAPK pathway by insulin
- insulin-triggered activating phosphorylation of AKT (pT308) (primary hepatocytes): significantly increased and prolonged
- insulin-triggered activating phosphorylation of IR (pY1189/1190) (primary hepatocytes): significantly increased and prolonged

Source: US11426422B2, “SHP2 inhibitors and methods of use thereof” (Research Development Foundation, priority 2018, dated 2022)
